Here are results for eleven compounds from patent US20110071108A1, “Beta-Cyclodextrin Derivatives as Antibacterial Agents” (Pinnacle Pharmaceuticals, Inc., priority 2005, published 2011).

Structures are written as SMILES.

One data set concerns Enterococcus faecium. Description: Bacterial panel testing, MIC by broth microdilution. The following applies: 20-24 hours growth. It is filed as cell-based. The procedure, abridged:
(§1)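 Read-out: clear (no-growth) wells scored after 20-24 h growth to define compound potency. Inoculum was McFarland-matched bacteria from 2-4 h cultures at 37° C in strain-appropriate Mueller-Hinton or Brain Heart infusion media. Compound (10 μg/ml DMSO stock) was serially diluted twofold across plate columns.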
A general note: In broth dilution the organism is exposed to a series of concentrations in liquid medium.

The subject of the next data set is Staphylococcus aureus. The data set is described as above. The format is cell-based. The following applies: 20-24 hours growth. The gist of the method:
as §1

For another data set, the system named is Salmonella choleraesuis. The description is as above. It is filed as cell-based. The following applies: 20-24 hours growth. The procedure, abridged: as §1
In a further data set the test system is Lungs cancer cells A549. Description: Mammalian cytotoxicity.
The next data set relates to Eschericia coli. Nature of the data set: Bacterial panel testing, MIC by broth microdilution. The format is cell-based. The following applies: 20-24 hours growth. The gist of the method: as §1
For another data set, the system named is Pseudomonas aeruginosa. The data set is described as above. It is filed as cell-based. The following applies: 20-24 hours growth. The procedure, abridged:
as §1

In the case of `NC[C@H]1O[C@@H]2O[C@H]3[C@H](O)[C@@H](O)[C@@H](O[C@H]4[C@H](O)[C@@H](O)[C@@H](O[C@H]5[C@H](O)[C@@H](O)[C@@H](O[C@H]6[C@H](O)[C@@H](O)[C@@H](O[C@H]7[C@H](O)[C@@H](O)[C@@H](O[C@H]8[C@H](O)[C@@H](O)[C@@H](O[C@H]1[C@H](O)[C@H]2O)O[C@@H]8CN)O[C@@H]7CN)O[C@@H]6CN)O[C@@H]5CN)O[C@@H]4CN)O[C@@H]3CN`, in the data set with Enterococcus faecium, the “MIC EF” value is over 200 µg/mL. Further, in the data set on Staphylococcus aureus, the “MIC SA” value is over 200 µg/mL. Besides, the “MIC SC” value in the data set with Salmonella choleraesuis is over 200 µg/mL. Besides, the “Mammalian Cytotoxicity IC50” value with Lungs cancer cells A549 came out at 720 µg/mL.

On to `NCC(=O)NC[C@H]1O[C@@H]2O[C@H]3[C@H](O)[C@@H](O)[C@@H](O[C@H]4[C@H](O)[C@@H](O)[C@@H](O[C@H]5[C@H](O)[C@@H](O)[C@@H](O[C@H]6[C@H](O)[C@@H](O)[C@@H](O[C@H]7[C@H](O)[C@@H](O)[C@@H](O[C@H]8[C@H](O)[C@@H](O)[C@@H](O[C@H]1[C@H](O)[C@H]2O)O[C@@H]8CNC(=O)CN)O[C@@H]7CNC(=O)CN)O[C@@H]6CNC(=O)CN)O[C@@H]5CNC(=O)CN)O[C@@H]4CNC(=O)CN)O[C@@H]3CNC(=O)CN`, for which, in the data set with Eschericia coli, the “MIC EC” value is over 200 µg/mL. For the same compound, in the data set on Enterococcus faecium, the “MIC EF” value is over 200 µg/mL. Moreover, the “MIC SA” value with Staphylococcus aureus is over 200 µg/mL. Also, in the data set on Salmonella choleraesuis, the “MIC SC” value is over 200 µg/mL. In the data set with Pseudomonas aeruginosa, the “MIC PA” value is over 200 µg/mL. The “Mammalian Cytotoxicity IC50” value in the data set on Lungs cancer cells A549 is 690 µg/mL.

Regarding `CC(C)C[C@H](N)C(=O)NC[C@H]1O[C@@H]2O[C@H]3[C@H](O)[C@@H](O)[C@@H](O[C@H]4[C@H](O)[C@@H](O)[C@@H](O[C@H]5[C@H](O)[C@@H](O)[C@@H](O[C@H]6[C@H](O)[C@@H](O)[C@@H](O[C@H]7[C@H](O)[C@@H](O)[C@@H](O[C@H]8[C@H](O)[C@@H](O)[C@@H](O[C@H]1[C@H](O)[C@H]2O)O[C@@H]8CNC(=O)[C@@H](N)CC(C)C)O[C@@H]7CNC(=O)[C@@H](N)CC(C)C)O[C@@H]6CNC(=O)[C@@H](N)CC(C)C)O[C@@H]5CNC(=O)[C@@H](N)CC(C)C)O[C@@H]4CNC(=O)[C@@H](N)CC(C)C)O[C@@H]3CNC(=O)[C@@H](N)CC(C)C`, the “MIC EC” value in the data set on Eschericia coli is over 200 µg/mL. For the same compound, the “MIC EF” value against Enterococcus faecium is over 200 µg/mL. In the data set with Staphylococcus aureus, the “MIC SA” value is over 200 µg/mL. Moreover, the “MIC SC” value in the data set with Salmonella choleraesuis was over 200 µg/mL. For the same compound, in the data set on Pseudomonas aeruginosa, the “MIC PA” value was over 200 µg/mL. Also, the “Mammalian Cytotoxicity IC50” value in the data set on Lungs cancer cells A549 was 215 µg/mL.

Consider `NCCCCCC(=O)NC[C@H]1O[C@@H]2O[C@H]3[C@H](O)[C@@H](O)[C@@H](O[C@H]4[C@H](O)[C@@H](O)[C@@H](O[C@H]5[C@H](O)[C@@H](O)[C@@H](O[C@H]6[C@H](O)[C@@H](O)[C@@H](O[C@H]7[C@H](O)[C@@H](O)[C@@H](O[C@H]8[C@H](O)[C@@H](O)[C@@H](O[C@H]1[C@H](O)[C@H]2O)O[C@@H]8CNC(=O)CCCCCN)O[C@@H]7CNC(=O)CCCCCN)O[C@@H]6CNC(=O)CCCCCN)O[C@@H]5CNC(=O)CCCCCN)O[C@@H]4CNC(=O)CCCCCN)O[C@@H]3CNC(=O)CCCCCN`, for which the “MIC EC” value against Eschericia coli was over 200 µg/mL. The “MIC EF” value in the data set with Enterococcus faecium was over 200 µg/mL. Besides, the “MIC SC” value against Salmonella choleraesuis was over 200 µg/mL. Moreover, in the data set on Pseudomonas aeruginosa, the “MIC PA” value is over 200 µg/mL. For the same compound, the “Mammalian Cytotoxicity IC50” value in the data set on Lungs cancer cells A549 came out at 780 µg/mL.

For `[N-]=[N+]=NC[C@H]1O[C@@H]2O[C@H]3[C@H](O)[C@@H](O)[C@@H](O[C@H]4[C@H](O)[C@@H](O)[C@@H](O[C@H]5[C@H](O)[C@@H](O)[C@@H](O[C@H]6[C@H](O)[C@@H](O)[C@@H](O[C@H]7[C@H](O)[C@@H](O)[C@@H](O[C@H]8[C@H](O)[C@@H](O)[C@@H](O[C@H]1[C@H](O)[C@H]2O)O[C@@H]8CN=[N+]=[N-])O[C@@H]7CN=[N+]=[N-])O[C@@H]6CN=[N+]=[N-])O[C@@H]5CN=[N+]=[N-])O[C@@H]4CN=[N+]=[N-])O[C@@H]3CN=[N+]=[N-]`, the “MIC EC” value in the data set with Eschericia coli is over 200 µg/mL. In addition, the “MIC EF” value with Enterococcus faecium was over 200 µg/mL. Besides, the “MIC SC” value in the data set with Salmonella choleraesuis is over 200 µg/mL. For the same compound, the “MIC PA” value against Pseudomonas aeruginosa is over 200 µg/mL. Also, the “Mammalian Cytotoxicity IC50” value in the data set on Lungs cancer cells A549 turned out to be 2116 µg/mL.

As for `O[C@@H]1[C@@H](O)[C@H]2O[C@H]3[C@H](O)[C@@H](O)[C@@H](O[C@H]4[C@H](O)[C@@H](O)[C@@H](O[C@H]5[C@H](O)[C@@H](O)[C@@H](O[C@H]6[C@H](O)[C@@H](O)[C@@H](O[C@H]7[C@H](O)[C@@H](O)[C@@H](O[C@H]8[C@H](O)[C@@H](O)[C@@H](O[C@@H]1[C@@H](CNc1ncccc1OCc1ccccc1)O2)O[C@@H]8CNc1ncccc1OCc1ccccc1)O[C@@H]7CNc1ncccc1OCc1ccccc1)O[C@@H]6CNc1ncccc1OCc1ccccc1)O[C@@H]5CNc1ncccc1OCc1ccccc1)O[C@@H]4CNc1ncccc1OCc1ccccc1)O[C@@H]3CNc1ncccc1OCc1ccccc1`, the “MIC EC” value in the data set on Eschericia coli is over 200 µg/mL. In the data set on Salmonella choleraesuis, the “MIC SC” value is over 200 µg/mL. Besides, in the data set with Pseudomonas aeruginosa, the “MIC PA” value was over 200 µg/mL. Further, in the data set on Lungs cancer cells A549, the “Mammalian Cytotoxicity IC50” value turned out to be 398 µg/mL.

As to `OC1C2OC(CNc3nc4ccccc4s3)C(OC3OC(CNc4nc5ccccc5s4)C(OC4OC(CNc5nc6ccccc6s5)C(OC5OC(CNc6nc7ccccc7s6)C(OC6OC(CNc7nc8ccccc8s7)C(OC7OC(CNc8nc9ccccc9s8)C(OC8OC(CNc9nc%10ccccc%10s9)C(O2)C(O)C8O)C(O)C7O)C(O)C6O)C(O)C5O)C(O)C4O)C(O)C3O)C1O` (stereo not shown), the “MIC EC” value against Eschericia coli was over 200 µg/mL. Further, in the data set with Salmonella choleraesuis, the “MIC SC” value is over 200 µg/mL. Also, the “MIC PA” value against Pseudomonas aeruginosa was over 200 µg/mL. In the data set with Lungs cancer cells A549, the “Mammalian Cytotoxicity IC50” value amounted to 317 µg/mL.

As to `Cl.Cl.Cl.Cl.Cl.Cl.Cl.NCc1ccc(CSCC2OC3OC4C(CSCc5ccc(CN)cc5)OC(OC5C(CSCc6ccc(CN)cc6)OC(OC6C(CSCc7ccc(CN)cc7)OC(OC7C(CSCc8ccc(CN)cc8)OC(OC8C(CSCc9ccc(CN)cc9)OC(OC9C(CSCc%10ccc(CN)cc%10)OC(OC2C(O)C3O)C(O)C9O)C(O)C8O)C(O)C7O)C(O)C6O)C(O)C5O)C(O)C4O)cc1` (stereo not shown), in the data set with Enterococcus faecium, the “MIC EF” value is over 200 µg/mL. In addition, the “MIC SA” value in the data set on Staphylococcus aureus was over 200 µg/mL. In the data set with Lungs cancer cells A549, the “Mammalian Cytotoxicity IC50” value is 56.2 µg/mL.

In the case of `Cl.Cl.Cl.Cl.Cl.Cl.Cl.NCc1cccc(CSCC2OC3OC4C(CSCc5cccc(CN)c5)OC(OC5C(CSCc6cccc(CN)c6)OC(OC6C(CSCc7cccc(CN)c7)OC(OC7C(CSCc8cccc(CN)c8)OC(OC8C(CSCc9cccc(CN)c9)OC(OC9C(CSCc%10cccc(CN)c%10)OC(OC2C(O)C3O)C(O)C9O)C(O)C8O)C(O)C7O)C(O)C6O)C(O)C5O)C(O)C4O)c1` (stereo not shown), the “MIC EF” value in the data set on Enterococcus faecium is over 200 µg/mL. Besides, the “MIC SC” value in the data set with Salmonella choleraesuis was over 200 µg/mL. The “Mammalian Cytotoxicity IC50” value in the data set with Lungs cancer cells A549 was found to be 54.3 µg/mL.

Regarding `OC1C2OC(CNC3CCCCC3)C(OC3OC(CNC4CCCCC4)C(OC4OC(CNC5CCCCC5)C(OC5OC(CNC6CCCCC6)C(OC6OC(CNC7CCCCC7)C(OC7OC(CNC8CCCCC8)C(OC8OC(CNC9CCCCC9)C(O2)C(O)C8O)C(O)C7O)C(O)C6O)C(O)C5O)C(O)C4O)C(O)C3O)C1O` (stereo not shown), the “MIC SC” value in the data set on Salmonella choleraesuis was over 200 µg/mL. In addition, in the data set on Pseudomonas aeruginosa, the “MIC PA” value was over 200 µg/mL. The “Mammalian Cytotoxicity IC50” value with Lungs cancer cells A549 was 373 µg/mL.

Turning to `COc1ccc(CNCC2OC3OC4C(CNCc5ccc(OC)cc5)OC(OC5C(CNCc6ccc(OC)cc6)OC(OC6C(CNCc7ccc(OC)cc7)OC(OC7C(CNCc8ccc(OC)cc8)OC(OC8C(CNCc9ccc(OC)cc9)OC(OC9C(CNCc%10ccc(OC)cc%10)OC(OC2C(O)C3O)C(O)C9O)C(O)C8O)C(O)C7O)C(O)C6O)C(O)C5O)C(O)C4O)cc1` (stereo not shown), the “MIC SC” value in the data set with Salmonella choleraesuis is over 200 µg/mL. In the data set with Pseudomonas aeruginosa, the “MIC PA” value was over 200 µg/mL. Further, the “Mammalian Cytotoxicity IC50” value in the data set on Lungs cancer cells A549 was determined as 297 µg/mL.
